Assay results from patent US20200024278A1, “COMPOSITION COMPRISING ANTIBIOTIC COMPOUND AND AN HETEROCYCLIC COMPOUND AND THEIR USE IN PREVENTING OR TREATING BACTERIAL INFECTIONS” (MUTABILIS, priority 2016, published 2020).

What was measured:
ECL P99 [1] = experiment: Fractional Inhibitory Concentration Index, checkerboard assay; assay type: cell-based, E. cloacae
Description: (§1) Method 2: Determination of the Fractional Inhibitory Concentration Index
(§2) Serial 2-fold dilutions of each antibiotic tested were prepared in ca-MHB and mixed in each well of a 96-well microtiter plate so that each row (and column) contained a fixed amount of one agent and increasing amounts of the second agent. The range of drug concentrations used in the checkerboard analysis was such that the dilution range encompassed the MIC for each drug used in the analysis. Broth microdilution plates were inoculated with each strain (Table 3) to yield 5.10^5 CFU/mL in a 100 μL final volume and incubated for 18 h at 35° C. in ambient air. Assays including Fosfomycin were supplemented with 25 μg/ml of Glucose-6-phosphate. MICs were determined after overnight incubation, and the fractional inhibitory concentration (FIC) index was calculated for each well. The FIC index (FICI) was calculated for each combination according to the equation FICI=FICa+FICb=(MIC of drug A in combination/MIC of drug A alone)+(MIC of drug B in combination/MIC of drug B alone). The FICI was interpreted as follows: synergy, FICI […]; indifference, 0.5<FIC<4; and antagonism, FICI>4. The checkerboard assays were performed in duplicate.

ECL P99 [2] = experiment: MIC, broth microdilution (CLSI), substance alone or ATB combined with compound at 4 or 8 μg/mL; assay type: cell-based, E. cloacae; conditions: Enterobacter cloacae; substance alone; ECL P99; read-out: MIC
In short: (§3)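 Potentiation format: antibiotic dilution series run with test compound held at 4 or 8 μg/mL, alongside compound-alone MICs. Broth microdilution per CLSI in ca-MHB, 16-20 h at 35° C.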

SPN 49619 = experiment: as above; assay type: cell-based, S. pneumoniae; conditions: SPN 49619; for MIC ATB combined with compound: compound @4 μg/ml
In short: as §3

KPN UFR68 = experiment: Fractional Inhibitory Concentration Index, checkerboard assay; assay type: cell-based, K. pneumoniae
Description: as §1, §2

ECO 190317 [3] = experiment: as above; assay type: cell-based, E. coli
Description: as §1, §2

ECO UFR39 = experiment: MIC, broth microdilution (CLSI), substance alone or ATB combined with compound at 4 or 8 μg/mL; assay type: cell-based, E. coli; conditions: Escherichia coli; substance alone; ECO UFR39; read-out: MIC
In short: as §3

ECO 190317 [4] = experiment: as above; assay type: cell-based, E. coli; conditions: Escherichia coli; substance alone; ECO 190317; read-out: MIC
In short: as §3

SAU 29213 = experiment: as above; assay type: cell-based, S. aureus; conditions: for MIC ATB combined with compound: compound @4 μg/ml, SAU 29213
In short: as §3

KPN BAA-1898 = experiment: as above; assay type: cell-based, K. pneumoniae; conditions: Klebsiella pneumoniae, BAA1898; substance alone; KPN BAA-1898; read-out: MIC
In short: as §3

KPN UFR42 = experiment: as above; assay type: cell-based, K. pneumoniae; conditions: Klebsiella pneumoniae; substance alone; KPN UFR42; read-out: MIC
In short: as §3

PAE UFR90 [5] = experiment: as above; assay type: cell-based, P. aeruginosa; conditions: PAE UFR90; for MIC ATB combined with compound: compound @4 μg/ml
In short: as §3

PAE 105250 = experiment: as above; assay type: cell-based, P. aeruginosa; conditions: PAE 105250; for MIC ATB combined with compound: compound @4 μg/ml
In short: as §3

PAE UFR48 [6] = experiment: as above; assay type: cell-based, P. aeruginosa; conditions: PAE UFR48; for MIC ATB combined with compound: compound @4 μg/ml
In short: as §3

PAE UFR90 [7] = experiment: Fractional Inhibitory Concentration Index, checkerboard assay; assay type: cell-based, P. aeruginosa
Description: as §1, §2

PAE UFR48 [8] = experiment: as above; assay type: cell-based, P. aeruginosa
Description: as §1, §2

[9] = Pseudomonas aeruginosa, substance alone, read-out: MIC

## NC[C@@H]1C(c2ncco2)=C[C@@H]2CN1C(=O)N2OS(=O)(=O)[O-].O=C(O)C(F)(F)F.[Na+] [Example 5, Sodium and 2,2,2-trifluoroacetate [(2S,5R)-2-(azaniumylmethyl)-7-oxo-3-oxazol-2-yl-1,6-diazabicyclo[3.2.1]oct-3-en-6-yl] Sulfate]
ECL P99 [1]; compound +ATM
  FIC index min: 0.23
ECL P99 [1]; compound +FEP
  FIC index min: 0.23
ECL P99 [1]; compound +FOS
  FIC index min: 0.16
ECL P99 [1]; compound +MEM
  FIC index min: 0.63
ECL P99 [1]; compound +PIP
  FIC index min: 0.32
ECL P99 [2]
  MIC: ≤ 0.016 µg/mL
SPN 49619; ATB ATM
  MIC ATB combined with compound: >32 µg/mL
SPN 49619; ATB FEP
  MIC ATB combined with compound: 0.063 µg/mL
SPN 49619; ATB FOS
  MIC ATB combined with compound: 16 µg/mL
SPN 49619; ATB MEM
  MIC ATB combined with compound: 0.063 µg/mL
SPN 49619; ATB PIP
  MIC ATB combined with compound: 0.5 µg/mL
SPN 49619; Streptococcus pneumoniae, substance alone, read-out: MIC
  MIC: > 32 µg/mL
KPN UFR68; compound +ATM
  FIC index min: ≤0.008
KPN UFR68; compound +FEP
  FIC index min: ≤0.0098
KPN UFR68; compound +FOS
  FIC index min: 0.203
KPN UFR68; compound +MEM
  FIC index min: 0.020
KPN UFR68; compound +PIP
  FIC index min: ≤0.035
ECO 190317 [3]; compound +ATM
  FIC index min: 0.52
ECO 190317 [3]; compound +FEP
  FIC index min: 0.25
ECO 190317 [3]; compound +FOS
  FIC index min: 0.66
ECO 190317 [3]; compound +MEM
  FIC index min: 0.76
ECO 190317 [3]; compound +PIP
  FIC index min: ≤0.56
ECO UFR39
  MIC: ≤ 0.016 µg/mL
ECO 190317 [4]
  MIC: ≤ 0.016 µg/mL
SAU 29213; ATB ATM
  MIC ATB combined with compound: >32 µg/mL
SAU 29213; ATB FEP
  MIC ATB combined with compound: 2 µg/mL
SAU 29213; ATB FOS
  MIC ATB combined with compound: 0.5 µg/mL
SAU 29213; ATB MEM
  MIC ATB combined with compound: <=0.031 μg/mL
SAU 29213; ATB PIP
  MIC ATB combined with compound: 2 µg/mL
SAU 29213; Staphylococcus aureus, substance alone, SAU 29213 (MSSA 29213), read-out: MIC
  MIC: > 32 µg/mL
KPN BAA-1898
  MIC: 16 µg/mL
KPN UFR42
  MIC: 32 µg/mL
PAE UFR90 [5]; ATB ATM
  MIC ATB combined with compound: <0.031 µg/mL
PAE UFR90 [5]; ATB FEP
  MIC ATB combined with compound: <0.031 µg/mL
PAE UFR90 [5]; ATB FOS
  MIC ATB combined with compound: <0.125 µg/mL
PAE UFR90 [5]; ATB MEM
  MIC ATB combined with compound: <0.031 µg/mL
PAE UFR90 [5]; ATB PIP
  MIC ATB combined with compound: <0.031 µg/mL
PAE UFR90 [5]; [9]
  MIC: 0.25 µg/mL
PAE 105250; ATB ATM
  MIC ATB combined with compound: <0.031 µg/mL
PAE 105250; ATB FEP
  MIC ATB combined with compound: <0.031 µg/mL
PAE 105250; ATB FOS
  MIC ATB combined with compound: 16 µg/mL
PAE 105250; ATB MEM
  MIC ATB combined with compound: <0.031 µg/mL
PAE 105250; ATB PIP
  MIC ATB combined with compound: <0.031 µg/mL
PAE 105250; [9]
  MIC: 4 µg/mL
PAE UFR48 [6]; ATB ATM
  MIC ATB combined with compound: <0.031 µg/mL
PAE UFR48 [6]; ATB FEP
  MIC ATB combined with compound: <0.031 µg/mL
PAE UFR48 [6]; ATB FOS
  MIC ATB combined with compound: 4 µg/mL
PAE UFR48 [6]; ATB MEM
  MIC ATB combined with compound: <0.031 µg/mL
PAE UFR48 [6]; ATB PIP
  MIC ATB combined with compound: <0.031 µg/mL
PAE UFR48 [6]; [9]
  MIC: 2 µg/mL
PAE UFR90 [7]; compound +ATM
  FIC index min: 0.76
PAE UFR90 [7]; compound +FEP
  FIC index min: 0.69
PAE UFR90 [7]; compound +FOS
  FIC index min: 0.69
PAE UFR90 [7]; compound +MEM
  FIC index min: 0.81
PAE UFR90 [7]; compound +PIP
  FIC index min: 0.56
PAE UFR48 [8]; compound +ATM
  FIC index min: 0.34
PAE UFR48 [8]; compound +FEP
  FIC index min: 0.33
PAE UFR48 [8]; compound +FOS
  FIC index min: 0.88
PAE UFR48 [8]; compound +MEM
  FIC index min: 0.63
PAE UFR48 [8]; compound +PIP
  FIC index min: 0.52
